{"source": "ChEMBL document CHEMBL4665865", "about": "“New series of isoxazole derivatives targeting EGFR-TK: Synthesis, molecular modeling and antitumor evaluation” (Bioorg Med Chem, 2020)", "key": {"[1]": {"system": "MCF7", "assay": "Induction of cell cycle arrest in human MCF7 cells assessed as cell debris at antiproliferative IC50 by PI staining based flow cytometric analysis (reference value: 1.63%)", "type": "functional", "conditions": "time 24 hrs"}, "[2]": {"system": "MCF7", "assay": "Induction of apoptosis in human MCF7 cells assessed as necrotic cells at antiproliferative IC50 incubated for 24 hrs by annexin V FITC and propidium iodide staining based flow cytometry (reference value: 1.11 %)", "type": "functional"}, "[3]": {"system": "HCT-116", "assay": "Induction of cell cycle arrest in human HCT-116 cells assessed as accumulation of cells at S phase at antiproliferative IC50 by PI staining based flow cytometric analysis (reference value: 35.61%)", "type": "functional"}, "[4]": {"system": "MCF7", "assay": "Induction of cell cycle arrest in human MCF7 cells assessed as accumulation of cells at S phase at antiproliferative IC50 by PI staining based flow cytometric analysis (reference value: 32.91%)", "type": "functional"}, "[5]": {"system": "HCT-116", "assay": "Induction of cell cycle arrest in human HCT-116 cells assessed as accumulation of cells at G2/M phase at antiproliferative IC50 by PI staining based flow cytometric analysis (reference value: 15.87%)", "type": "functional"}, "[6]": {"system": "HepG2", "assay": "Induction of cell cycle arrest in human HepG2 cells assessed as accumulation of cells at S phase at antiproliferative IC50 by PI staining based flow cytometric analysis (reference value: 34.03%)", "type": "functional"}, "[7]": {"system": "HepG2", "assay": "Induction of cell cycle arrest in human HepG2 cells assessed as accumulation of cells at G0/G1 phase at antiproliferative IC50 by PI staining based flow cytometric analysis (reference value: 51.88%)", "type": "functional"}, "[8]": {"system": "MCF7", "assay": "Induction of apoptosis in human MCF7 cells assessed as early apoptotic cells at antiproliferative IC50 incubated for 24 hrs by annexin V FITC and propidium iodide staining based flow cytometry (reference value: 0.39 %)", "type": "functional"}, "[9]": {"biological_target": "Tubulin (Homo sapiens) (UniProt P68371+Q9H4B7+P0DPH7+P68366+Q13509+Q71U36+P04350+Q3ZCM7+P07437+P68363+Q9BQE3+Q6PEY2+Q13885+Q9BVA1+Q9BUF5)", "assay": "Inhibition of tubulin polymerization (unknown origin) at 10 uM relative to control", "type": "protein-complex assay"}, "[10]": {"system": "HepG2", "assay": "Antitumor activity against human HepG2 cells assessed as inhibition of cell viability by MTT assay", "type": "functional, cell-based"}, "[11]": {"system": "HCT-116", "assay": "Induction of apoptosis in human HCT-116 cells assessed as increase in Bax protein expression by Western blot analysis relative to untreated control", "type": "functional"}, "[12]": {"system": "HepG2", "assay": "Induction of apoptosis in human HepG2 cells assessed as increase in Bax protein expression by Western blot analysis relative to untreated control", "type": "functional"}, "[13]": {"system": "WI-38", "assay": "Cytotoxicity against human WI38 cells assessed as reduction in cell viability by MTT assay", "type": "cell-based"}, "[14]": {"system": "WISH", "assay": "Cytotoxicity against human WISH cells assessed as reduction in cell viability by MTT assay", "type": "cell-based"}, "[15]": {"system": "MCF7", "assay": "Induction of apoptosis in human MCF7 cells assessed as late apoptotic cells at antiproliferative IC50 incubated for 24 hrs by annexin V FITC and propidium iodide staining based flow cytometry (reference value: 0.28 %)", "type": "functional"}, "[16]": {"system": "HepG2", "assay": "Induction of apoptosis in human HepG2 cells assessed as increase in caspase-3 level after 24 hrs by Western blot analysis relative to untreated control", "type": "functional"}, "[17]": {"system": "HCT-116", "assay": "Induction of apoptosis in human HCT-116 cells assessed as early apoptotic cells at antiproliferative IC50 incubated for 24 hrs by annexin V FITC and propidium iodide staining based flow cytometry (reference value: 0.41 %)", "type": "functional"}, "[18]": {"system": "HCT-116", "assay": "Induction of apoptosis in human HCT-116 cells assessed as decrease in Bcl-2 protein expression by Western blot analysis relative to untreated control", "type": "functional"}, "[19]": {"system": "HCT-116", "assay": "Induction of cell cycle arrest in human HCT-116 cells assessed as accumulation of cells at Pre-G1 phase at antiproliferative IC50 by PI staining based flow cytometric analysis (reference value: 1.19%)", "type": "functional"}, "[20]": {"system": "MCF7", "assay": "Induction of apoptosis in human MCF-7 cells assessed as increase in caspase-9 level after 24 hrs by Western blot analysis relative to untreated control", "type": "functional"}, "[21]": {"biological_target": "DNA topoisomerase 2-beta (Homo sapiens, UniProt Q02880)", "sequence (Q02880 whole entry)": "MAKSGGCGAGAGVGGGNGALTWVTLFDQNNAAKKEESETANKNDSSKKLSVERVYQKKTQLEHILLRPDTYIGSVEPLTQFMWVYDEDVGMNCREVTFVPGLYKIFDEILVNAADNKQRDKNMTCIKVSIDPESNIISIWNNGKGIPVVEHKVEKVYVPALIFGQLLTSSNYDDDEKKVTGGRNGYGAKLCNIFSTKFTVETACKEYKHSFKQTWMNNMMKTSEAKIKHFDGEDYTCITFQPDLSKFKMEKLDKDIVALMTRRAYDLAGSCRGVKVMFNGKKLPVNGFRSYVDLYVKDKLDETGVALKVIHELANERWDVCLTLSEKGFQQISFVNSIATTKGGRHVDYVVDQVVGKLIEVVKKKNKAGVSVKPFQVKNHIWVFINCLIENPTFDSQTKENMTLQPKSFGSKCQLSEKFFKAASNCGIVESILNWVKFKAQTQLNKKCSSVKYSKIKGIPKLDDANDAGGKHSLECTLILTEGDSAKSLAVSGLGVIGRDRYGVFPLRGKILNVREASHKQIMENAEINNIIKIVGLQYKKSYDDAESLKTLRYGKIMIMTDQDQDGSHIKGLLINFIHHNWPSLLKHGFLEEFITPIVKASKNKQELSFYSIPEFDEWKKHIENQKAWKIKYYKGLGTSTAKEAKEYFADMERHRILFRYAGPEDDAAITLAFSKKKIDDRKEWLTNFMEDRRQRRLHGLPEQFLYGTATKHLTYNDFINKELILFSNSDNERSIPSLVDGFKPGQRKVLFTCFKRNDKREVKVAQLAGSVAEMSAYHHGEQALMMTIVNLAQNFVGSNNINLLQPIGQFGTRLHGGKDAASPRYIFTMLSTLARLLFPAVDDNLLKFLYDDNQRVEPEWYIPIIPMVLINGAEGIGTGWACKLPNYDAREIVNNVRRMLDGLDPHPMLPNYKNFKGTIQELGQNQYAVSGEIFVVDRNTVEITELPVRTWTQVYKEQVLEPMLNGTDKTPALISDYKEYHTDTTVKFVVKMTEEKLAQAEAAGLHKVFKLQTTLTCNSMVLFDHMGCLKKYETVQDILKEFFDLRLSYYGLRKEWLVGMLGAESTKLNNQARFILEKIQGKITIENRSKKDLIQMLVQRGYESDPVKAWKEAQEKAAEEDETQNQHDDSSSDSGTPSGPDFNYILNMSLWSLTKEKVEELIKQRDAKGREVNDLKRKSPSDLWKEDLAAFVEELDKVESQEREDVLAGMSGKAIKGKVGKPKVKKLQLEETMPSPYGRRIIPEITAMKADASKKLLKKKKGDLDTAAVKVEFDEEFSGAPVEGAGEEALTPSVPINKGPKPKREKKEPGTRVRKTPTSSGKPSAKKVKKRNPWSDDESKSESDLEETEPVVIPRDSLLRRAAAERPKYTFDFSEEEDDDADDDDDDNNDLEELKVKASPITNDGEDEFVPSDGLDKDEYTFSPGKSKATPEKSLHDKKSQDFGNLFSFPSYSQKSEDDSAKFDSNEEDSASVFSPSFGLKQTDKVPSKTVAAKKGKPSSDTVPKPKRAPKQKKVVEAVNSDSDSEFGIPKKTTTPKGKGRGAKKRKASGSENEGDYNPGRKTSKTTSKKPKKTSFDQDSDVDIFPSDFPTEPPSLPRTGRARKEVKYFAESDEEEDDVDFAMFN", "assay": "Inhibition of Topoisomerase II beta (unknown origin) relative to control"}, "[22]": {"system": "MCF7", "assay": "Induction of cell cycle arrest in human MCF7 cells assessed as accumulation of cells at G2/M phase at antiproliferative IC50 by PI staining based flow cytometric analysis (reference value: 10.95%)", "type": "functional"}, "[23]": {"biological_target": "Tubulin", "assay": "Inhibition of tubulin polymerization (unknown origin) relative to control", "type": "protein-complex assay, Homo sapiens"}, "[24]": {"system": "HepG2", "assay": "Induction of cell cycle arrest in human HepG2 cells assessed as accumulation of cells at Pre-G1 phase at antiproliferative IC50 by PI staining based flow cytometric analysis (reference value: 1.44%)", "type": "functional"}, "[25]": {"system": "HCT-116", "assay": "Induction of cell cycle arrest in human HCT-116 cells assessed as aggregates at antiproliferative IC50 by PI staining based flow cytometric analysis (reference value: 1.61%)", "type": "functional", "conditions": "time 24 hrs"}, "[26]": {"system": "MCF7", "assay": "Induction of apoptosis in human MCF-7 cells assessed as increase in Bax protein expression by Western blot analysis relative to untreated control", "type": "functional"}, "[27]": {"system": "HepG2", "assay": "Induction of cell cycle arrest in human HepG2 cells assessed as accumulation of cells at G2/M phase at antiproliferative IC50 by PI staining based flow cytometric analysis (reference value: 14.09%)", "type": "functional"}, "[28]": {"system": "HCT-116", "assay": "Induction of apoptosis in human HCT-116 cells assessed as necrotic cells at antiproliferative IC50 incubated for 24 hrs by annexin V FITC and propidium iodide staining based flow cytometry (reference value: 0.59 %)", "type": "functional"}, "[29]": {"system": "HepG2", "assay": "Induction of apoptosis in human HepG2 cells assessed as late apoptotic cells at antiproliferative IC50 incubated for 24 hrs by annexin V FITC and propidium iodide staining based flow cytometry (reference value: 0.31 %)", "type": "functional"}, "[30]": {"biological_target": "Casein kinase II subunit alpha (Homo sapiens, UniProt P68400)", "sequence (P68400 whole entry)": "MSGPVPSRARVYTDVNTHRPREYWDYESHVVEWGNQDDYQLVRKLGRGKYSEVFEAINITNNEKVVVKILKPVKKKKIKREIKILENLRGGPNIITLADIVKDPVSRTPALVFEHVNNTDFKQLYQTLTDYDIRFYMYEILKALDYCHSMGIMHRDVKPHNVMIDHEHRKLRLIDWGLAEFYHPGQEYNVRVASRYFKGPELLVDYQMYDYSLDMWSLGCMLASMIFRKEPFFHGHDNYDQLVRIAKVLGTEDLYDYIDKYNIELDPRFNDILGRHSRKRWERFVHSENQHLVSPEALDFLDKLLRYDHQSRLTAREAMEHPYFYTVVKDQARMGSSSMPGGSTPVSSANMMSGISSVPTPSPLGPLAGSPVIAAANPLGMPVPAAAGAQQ", "assay": "Inhibition of CK2 alpha (unknown origin) relative to control"}, "[31]": {"system": "HepG2", "assay": "Induction of apoptosis in human HepG2 cells assessed as necrotic cells at antiproliferative IC50 incubated for 24 hrs by annexin V FITC and propidium iodide staining based flow cytometry (reference value: 0.52 %)", "type": "functional"}, "[32]": {"system": "HCT-116", "assay": "Induction of apoptosis in human HCT-116 cells assessed as increase in caspase-3 level after 24 hrs by Western blot analysis relative to untreated control", "type": "functional"}, "[33]": {"system": "HepG2", "assay": "Induction of cell cycle arrest in human HepG2 cells assessed as cell debris at antiproliferative IC50 by PI staining based flow cytometric analysis (reference value: 1.52%)", "type": "functional", "conditions": "time 24 hrs"}, "[34]": {"biological_target": "Epidermal growth factor receptor (Homo sapiens, UniProt P00533)", "sequence (P00533 whole entry)": "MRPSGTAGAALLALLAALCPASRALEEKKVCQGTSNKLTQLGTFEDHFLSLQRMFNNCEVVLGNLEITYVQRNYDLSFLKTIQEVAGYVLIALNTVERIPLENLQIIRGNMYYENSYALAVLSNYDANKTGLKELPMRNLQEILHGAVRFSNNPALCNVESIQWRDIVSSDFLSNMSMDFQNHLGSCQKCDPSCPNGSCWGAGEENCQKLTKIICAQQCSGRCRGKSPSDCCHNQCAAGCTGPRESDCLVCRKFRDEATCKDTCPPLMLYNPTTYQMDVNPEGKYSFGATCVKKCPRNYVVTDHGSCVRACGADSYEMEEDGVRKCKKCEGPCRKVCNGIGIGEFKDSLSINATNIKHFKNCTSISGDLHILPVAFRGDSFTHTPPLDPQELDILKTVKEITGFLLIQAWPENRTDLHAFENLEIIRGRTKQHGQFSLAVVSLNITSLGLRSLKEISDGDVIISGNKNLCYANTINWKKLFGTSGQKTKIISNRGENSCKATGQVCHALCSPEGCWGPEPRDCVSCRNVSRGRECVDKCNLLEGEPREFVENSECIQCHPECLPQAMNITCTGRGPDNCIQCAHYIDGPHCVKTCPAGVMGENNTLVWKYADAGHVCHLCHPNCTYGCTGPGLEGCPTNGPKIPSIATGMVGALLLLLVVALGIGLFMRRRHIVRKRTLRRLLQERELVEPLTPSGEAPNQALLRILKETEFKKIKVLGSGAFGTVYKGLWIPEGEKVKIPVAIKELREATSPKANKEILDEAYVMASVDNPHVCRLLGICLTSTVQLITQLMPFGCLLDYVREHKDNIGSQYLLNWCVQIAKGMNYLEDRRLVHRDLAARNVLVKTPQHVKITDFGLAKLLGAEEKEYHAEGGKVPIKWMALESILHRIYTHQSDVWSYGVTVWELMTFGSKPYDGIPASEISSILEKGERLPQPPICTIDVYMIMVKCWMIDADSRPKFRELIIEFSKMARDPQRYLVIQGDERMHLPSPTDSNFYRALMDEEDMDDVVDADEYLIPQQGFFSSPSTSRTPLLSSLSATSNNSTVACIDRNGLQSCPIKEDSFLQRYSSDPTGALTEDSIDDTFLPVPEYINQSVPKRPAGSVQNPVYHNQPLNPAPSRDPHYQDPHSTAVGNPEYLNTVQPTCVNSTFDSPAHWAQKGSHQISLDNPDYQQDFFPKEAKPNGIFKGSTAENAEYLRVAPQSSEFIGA", "assay": "Inhibition of EGFR-TK (unknown origin) relative to control"}, "[35]": {"system": "HepG2", "assay": "Induction of apoptosis in human HepG2 cells assessed as decrease in Bcl-2 protein expression by Western blot analysis relative to untreated control", "type": "functional"}, "[36]": {"system": "MCF7", "assay": "Antitumor activity against human MCF7 cells assessed as inhibition of cell viability by MTT assay", "type": "functional, cell-based"}, "[37]": {"system": "HCT-116", "assay": "Induction of apoptosis in human HCT-116 cells assessed as late apoptotic cells at antiproliferative IC50 incubated for 24 hrs by annexin V FITC and propidium iodide staining based flow cytometry (reference value: 0.19 %)", "type": "functional"}}}
{"compound": "Cc1cc(NC2=NC(=O)/C(=C\\c3c4ccccc4cc4ccccc34)S2)no1", "values": [{"measurement": "Activity", "setting": "[1]", "value": 2.08, "unit": "%"}, {"measurement": "Activity", "setting": "[2]", "value": 2.31, "unit": "%"}, {"measurement": "Activity", "setting": "[3]", "value": 27.44, "unit": "%"}, {"measurement": "Activity", "setting": "[4]", "value": 26.41, "unit": "%"}, {"measurement": "Activity", "setting": "[5]", "value": 42.89, "unit": "%"}, {"measurement": "Activity", "setting": "[6]", "value": 24.96, "unit": "%"}, {"measurement": "Activity", "setting": "[7]", "value": 38.11, "unit": "%"}, {"measurement": "Activity", "setting": "[8]", "value": 6.28, "unit": "%"}, {"measurement": "inhibition", "setting": "[9]", "value": 57.7, "unit": "%"}, {"measurement": "IC50", "setting": "[10]", "value": 6.86, "unit": "µM"}, {"measurement": "fold change (FC)", "setting": "[11]", "value": 6.9}, {"measurement": "fold change (FC)", "setting": "[12]", "value": 4.1}, {"measurement": "IC50", "setting": "[13]", "value": 38.6, "unit": "µM"}, {"measurement": "IC50", "setting": "[14]", "value": 53.2, "unit": "µM"}, {"measurement": "Activity", "setting": "[15]", "value": 7.82, "unit": "%"}, {"measurement": "fold change (FC)", "setting": "[16]", "value": 5.4}, {"measurement": "Activity", "setting": "[17]", "value": 5.23, "unit": "%"}, {"measurement": "fold change (FC)", "setting": "[18]", "value": 0.64}, {"measurement": "Activity", "setting": "[19]", "value": 22.69, "unit": "%"}, {"measurement": "fold change (FC)", "setting": "[20]", "value": 4.7}, {"measurement": "IC50", "setting": "[21]", "value": 0.13, "unit": "µM"}, {"measurement": "Activity", "setting": "[22]", "value": 29.3, "unit": "%"}, {"measurement": "IC50", "setting": "[23]", "value": 3.61, "unit": "µM"}, {"measurement": "Activity", "setting": "[24]", "value": 13.3, "unit": "%"}, {"measurement": "Activity", "setting": "[25]", "value": 1.74, "unit": "%"}, {"measurement": "fold change (FC)", "setting": "[26]", "value": 7}, {"measurement": "Activity", "setting": "[27]", "value": 36.93, "unit": "%"}, {"measurement": "Activity", "setting": "[28]", "value": 2.27, "unit": "%"}, {"measurement": "Activity", "setting": "[29]", "value": 8, "unit": "%"}, {"measurement": "IC50", "setting": "[30]", "value": 0.171, "unit": "µM"}, {"measurement": "Activity", "setting": "[31]", "value": 1.77, "unit": "%"}, {"measurement": "fold change (FC)", "setting": "[32]", "value": 14.2}, {"measurement": "Activity", "setting": "[33]", "value": 2.18, "unit": "%"}, {"measurement": "IC50", "setting": "[34]", "value": 0.054, "unit": "µM"}, {"measurement": "fold change (FC)", "setting": "[35]", "value": 0.56}, {"measurement": "IC50", "setting": "[36]", "value": 6.38, "unit": "µM"}, {"measurement": "Activity", "setting": "[37]", "value": 15.19, "unit": "%"}]}
